The record followed here is ChEMBL document CHEMBL5154942, “Discovery of Clinical Candidate NTQ1062 as a Potent and Bioavailable Akt Inhibitor for the Treatment of Human Tumors” (J Med Chem, 2022).

Activity calls are given as the source filed them.

The test system of data set [1] is LNCaP. The data set can be described thus: Induction of apoptosis in human LNCaP cells assessed as early apoptotic cells at 1.25 uM incubated for 72 hrs by annexin V/PI double staining based flow cytometry method (reference value: […]). It counts as functional. (In general: A flow cytometer gives signals particle by particle.)
Data set [2] is described as follows: AUC (0 to t) in Sprague-Dawley rat at 5 mg/kg, iv measured upto 24 hrs by UPLC-MS/MS analysis. It is filed as ADME, organism-based. Also on record: time < 24 hrs, dose 5 mg/kg, route iv. The note with it: in vivo.
Data set [3] relates to LNCaP. The data set can be described thus: Induction of apoptosis in human LNCaP cells assessed as late apoptotic cells at 1.25 uM incubated for 72 hrs by annexin V/PI double staining based flow cytometry method (reference value: 2.75 %). It counts as functional.
The nature of data set [4]: Cmax in NCG mouse xenografted with human LNCaP cells at 50 mg/kg administered once daily for 18 to 21 days and measured upto 10 hrs post last dose by LC-MS/MS analysis. The note with it: in vivo. Also on record: dose 50 mg/kg, time 18-21 day. It counts as ADME, organism-based.
A short description of data set [5]: Bioavailability in crab-eating monkey at 6 mg/kg, ig by UPLC-MS/MS analysis. It counts as ADME, organism-based, Macaca fascicularis. The note with it: cynomolgus monkey, in vivo, po.
Data set [6] is described as follows: Oral bioavailability in overnight fasted ICR mouse at 10 mg/kg measured upto 24 hrs by UPLC-MS/MS analysis. It counts as ADME, organism-based. The note with it: in vivo.
The nature of data set [7]: Tmax in Sprague-Dawley rat at 10 mg/kg, ig by UPLC-MS/MS analysis. The note with it: in vivo, po, time < 24 hrs. It is filed as ADME, organism-based.
The subject of data set [8] is LNCaP. The data set can be described thus: In vivo inhibition of AKT in human LNCaP cells xenografted in NCG mouse assessed as reduction in GSK-3beta phosphorylation at 25 to 50 mg/kg administered for 21 days and measured after 4 hrs post last dose by Western blot analysis. It counts as functional, organism-based. The note with it: dose lower […], dose upper 50.0 mg/kg, time 21.0 day. (In general: In xenograft studies the graft and the host belong to different species.)

Another data set addresses Cytochrome P450 2D6 (Homo sapiens, UniProt P10635). Briefly: Inhibition of CYP2D6 in human liver microsomes at 0.01 to 30 uM using dextromethorphan as substrate in presence of NADPH by UPLC-MS/MS analysis. It counts as ADME, Microsome. On the technique in general: Liver microsomes are vesicles of endoplasmic reticulum, rich in cytochrome P450 enzymes.
The nature of data set [9]: Cmax in Sprague-Dawley rat at 10 mg/kg, ig by UPLC-MS/MS analysis. The note with it: in vivo, po. It is filed as ADME, organism-based. Also on record: dose 10 mg/kg, route ig.
A short description of data set [10]: Metabolic stability in CD-1 mouse liver microsomes assessed as half life at 1 uM measured after 60 mins by LC-MS/MS analysis. It counts as ADME, Microsome.
Data set [11] is described as follows: Half life in Sprague-Dawley rat at 5 mg/kg, iv measured upto 24 hrs by UPLC-MS/MS analysis. It is filed as ADME, organism-based. The conditions noted are these: in vivo.
Data set [12] can be described thus: Metabolic stability in Crab eating monkey liver microsomes assessed as parent compound remaining at 1 uM measured after 60 mins by UPLC-MS/MS analysis. It counts as ADME, Macaca fascicularis, Microsome. The note with it: cynomolgus monkey, read-out: Stability.

In general, AUC(0-t) refers to exposure summed from dosing to a finite time, without extrapolation to infinity. Usually Cmax stands for the maximum level reached in the sampled fluid or tissue. One may read the bioavailability as the share of a dose that reaches the circulation, judged against a reference dose that is usually intravenous. In general, Tmax refers to the time from dosing to the highest level. As a reminder, the IC50 is the concentration that gives 50% inhibition. As a reminder, the half-life is the time needed for the level to fall by half in the phase considered.

Cytochrome P450 2D6, sequence (P10635 whole entry): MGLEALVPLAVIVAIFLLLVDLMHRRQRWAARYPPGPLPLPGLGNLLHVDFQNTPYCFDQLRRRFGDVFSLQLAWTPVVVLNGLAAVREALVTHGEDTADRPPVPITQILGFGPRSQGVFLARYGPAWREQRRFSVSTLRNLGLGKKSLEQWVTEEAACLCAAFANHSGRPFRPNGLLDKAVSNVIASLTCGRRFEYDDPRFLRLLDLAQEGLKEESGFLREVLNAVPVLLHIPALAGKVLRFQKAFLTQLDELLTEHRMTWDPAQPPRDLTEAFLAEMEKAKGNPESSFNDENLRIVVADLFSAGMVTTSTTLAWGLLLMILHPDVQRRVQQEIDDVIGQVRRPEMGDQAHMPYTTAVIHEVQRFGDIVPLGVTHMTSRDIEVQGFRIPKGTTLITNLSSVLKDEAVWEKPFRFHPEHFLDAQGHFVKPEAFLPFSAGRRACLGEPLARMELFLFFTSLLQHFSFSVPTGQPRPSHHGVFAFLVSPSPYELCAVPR

As for `CC(C)NC[C@@H](C(=O)N1CCN(c2ncnc3c2[C@H](C)CC(=O)N3)[C@H]2C[C@H]21)c1ccc(Cl)cc1`, the values for the Activity with LNCaP [1] and with LNCaP [3] were 12.6% and 12.65%, respectively. In [2], this compound returned an exposure AUC(0-t) at 24 h of 1.76 µg·h/mL. Besides, the Cmax turned out to be 3.05 µg/mL in data set [4] and 0.705 µg/mL in data set [9]. Besides, the bioavailability was found to be 41.2% in data set [5] and 29.7% in data set [6]. Moreover, the Tmax in [7] turned out to be 2 h. Moreover, the result with LNCaP [8] was Active. Also, the IC50 at Cytochrome P450 2D6 turned out to be 20.6 µM. In data set [10], the half-life at 1 µM was greater than 6.45 h. For the same compound, in [11], the half-life was 2.97 h. Further, the remaining at 1 h, 1 µM in data set [12] worked out at 23.1%.
